Patent publication US20230172203A1, “PLANT METABOLISM PROMOTING COMPOSITIONS AND METHODS OF USE” (Panoptic Ag Solutions LLC, priority 2021, published 2023)

Experiments:
Format in all cases: in vivo
[1] = system: Whale variety spinach plant seedlings; test: 2021 Greenhouse Spinach Trial
Source text: (§1) The base formulation used in greenhouse trials was an aqueous solution of L-theanine (20% by weight). The base formulation was further diluted with water as detailed for each trial. Whale variety spinach plant seedlings (n=6/treatment) were planted in commercial potting soil and then were transplanted to 3-gallon pots. L-theanine treatment was applied at the equivalent of 1 pint in 100 gallons of water (125 ppm) and sprayed till runoff. Two treatment applications were made to the plants approximately 14 days apart.

[2] = system: CalWonder variety pepper plant seedlings; test: 2021 Greenhouse Bell Pepper Trial
Source text: as §1, with “CalWonder” for “Whale”, “pepper” for “spinach”, “(n=4/treatment)” for “(n=6/treatment)”

Mature apple trees = test: 2021 New York Replicated Apple Field Trial
Experimental: Mature apple trees (n=6) were treated with a 20% aqueous L-theanine solution at 1 pint per acre with application timings at Pink Bud, Bloom, Petal Fall, and every 2 weeks from Petal Fall until harvest.

Dwarf sunflower = test: 2021 Greenhouse Sunflower Trial
Source text: The base formulation used in greenhouse trials was an aqueous solution of L-theanine (20% by weight). The base formulation was further diluted with water as detailed for each trial. Dwarf sunflower seeds (n=9/treatment) were planted in commercial potting soil in 1-gallon pots. Approximately 14 days after emergence, an L-theanine solution was applied to the foliage at the equivalent of 8 fl. oz./acre in 50 gallons of water (125 ppm) and sprayed till run off. One application was made.

Corn seed = test: 2020 Greenhouse Corn Seed Treatment Trial
Experimental: The base formulation used in greenhouse trials was an aqueous solution of L-theanine (20% by weight). The base formulation was further diluted with water as detailed for each trial. Corn seed (n=9/treatment) was treated with an aqueous solution of L-theanine at a rate of 1.0 fl. oz. per hundredweight of corn seed. The seeds were planted in commercial potting soil in 1-gallon pots. The plants were grown for 21 days before they were harvested.

Mature cherry trees = test: 2022 Replicated California Cherry Trial
Experimental: Mature cherry trees (n=6) were treated with a 10% aqueous L-theanine solution at 1 pint per acre with application timings at Early Bloom, Petal Fall, and Early Fruit set. The trial was maintained at grower standard fertilizer and pest management throughout the course of the trial.

Corn plants = test: 2021 Greenhouse Corn Trial (drench, two rates); settings: for Plant Biomass / Root Length: drench 50 mL per pot, harvested 21 days later
Experimental: The base formulation used in greenhouse trials was an aqueous solution of L-theanine (20% by weight). The base formulation was further diluted with water as detailed for each trial. Corn seed (n=14/treatment) was planted in commercial potting soil in 3-gallon pots. Approximately 14 days after emergence, an aqueous solution of L-theanine was applied at a rate of 0.2 mL (Treatment 2) and 0.4 mL (Treatment 3) per 1000 mL water. The resulting solutions were drenched at a rate of 50 mL per pot. The plants were grown for an additional 21 days then harvested.

Zinnia plants = test: 2021 Zinnia Greenhouse Trial
Source text: as §1, with “trial. Zinna seeds” for “trial. Whale variety spinach plant seedlings”, “then” for “then were”, “transplanted into” for “transplanted to”, “Two treatments” for “Two treatment applications”

[3] = system: Wheat (Triticum aestivum); test: 2022 Replicated South Dakota Spring Wheat Field Trial
Source text: Wheat seed (Triticum aestivum) was planted at a rate of 90 lbs/acre. The treated plot size was 5 ft×40 ft and this was replicated 4 times. A 20% L-theanine solution was applied at 8 fl. oz./acre to the foliage of the wheat approximately 40 days after emergence. The trial was fertilized and maintained under grower standard practices.

[4] = foliar spray 125 ppm till runoff, two applications ~14 days apart
[5] = vs untreated check, 125 ppm foliar, two applications
[6] = 20% aqueous solution at 1 pint per acre, Pink Bud, Bloom, Petal Fall, then every 2 weeks until harvest
[7] = foliar, 8 fl. oz./acre in 50 gallons of water (125 ppm), one application
[8] = over the untreated check, 125 ppm foliar, one application
[9] = over the untreated check, seed treatment
[10] = seed treatment 1.0 fl. oz. per hundredweight of seed, harvested after 21 days
[11] = Treatment 2 (0.2 mL per 1000 mL), above the untreated check
[12] = Treatment 2: 8 fl. oz./acre (0.2 mL per 1000 mL water)
[13] = Treatment 3 (0.4 mL per 1000 mL), above the untreated check
[14] = Treatment 3: 16 fl. oz./acre (0.4 mL per 1000 mL water)
[15] = foliar spray 125 ppm till runoff, two treatments ~14 days apart
[16] = over the untreated check, 125 ppm foliar, two treatments

Compound: CCNC(=O)CC[C@H](N)C(=O)O [L-theanine]
- Basal Diameter [1, 4]: 3.07 a mm
- Leaf (count) [1, 4]: 8.66 a count
- Plant Height [1, 4]: 8.67 a in
- increase in leaf count [1, 5]: 1
- increase in leaf count, percent [1, 5]: 13.1%
- increase in plant height [1, 5]: 1.67 in
- increase in plant height, percent [1, 5]: 23.9%
- Basal Diameter [2, 4]: 5.55 a mm
- Fruit (count) [2, 4]: 5.5 a count
- Plant Height [2, 4]: 26 a in
- improvement in basal diameter [2, 5]: 1.82 mm
- improvement in basal diameter, percent [2, 5]: 48.8%
- improvement in fruit count [2, 5]: 3.0
- improvement in fruit count, percent [2, 5]: 120%
- Defects (Mature apple trees; [6]): 114.5 a bu/acre
- Salable Yield (Mature apple trees; [6]): 837.8 a bu/acre
- Total Yield (Mature apple trees; [6]): 952.3 a bu/acre
- increase in salable yield, percent (Mature apple trees; vs untreated check): 12.5%
- number of defective fruits (in words) (Mature apple trees; vs untreated check): reduced the number of defective fruits
- increase in salable yield (Mature apple trees; vs untreated check, 1 bushel=48 lbs): 93.1 bushels/acre
- Root Length (Dwarf sunflower; [7]): 1765.1 a cm
- Root Surface Area (Dwarf sunflower; [7]): 491.1 a cm^2
- Root Volume (Dwarf sunflower; [7]): 10.9 a cm^3
- Plant Biomass (Dwarf sunflower; foliar, 8 fl. oz./acre in 50 gallons of water (125 ppm), one application ~14 days after emergence): 38.63 a g
- increase in biomass (Dwarf sunflower; [8]): 4.4 grams
- increase in biomass, percent (Dwarf sunflower; [8]): 12.8%
- increase in root length (Dwarf sunflower; [8]): 70.5 cm
- increase in root length, percent (Dwarf sunflower; [8]): 4.2%
- increase in root surface area (Dwarf sunflower; [8]): 61.5 cm^2
- increase in root surface area, percent (Dwarf sunflower; [8]): 14.3%
- increase in root volume (Dwarf sunflower; [8]): 2.2 cm^3
- increase in root volume, percent (Dwarf sunflower; [8]): 25.3%
- increase in biomass (Corn seed; [9]): 1.3 g
- increase in biomass, percent (Corn seed; [9]): 4.4%
- increase in root length (Corn seed; [9]): 69.1 cm
- increase in root length, percent (Corn seed; [9]): 7.0%
- increase in root tips (Corn seed; [9]): 883.8
- increase in root tips, percent (Corn seed; [9]): 18.5%
- Plant Biomass (Corn seed; [10]): 29.88 a g
- Root Length (Corn seed; [10]): 1049.08 a cm
- Root Tips (#) (Corn seed; [10]): 5656.2 a #
- Yield (Mature cherry trees; 10% aqueous solution at 1 pint per acre, Early Bloom, Petal Fall, Early Fruit set): 70.3 a Boxes/Acre
- increase in yield (Mature cherry trees; over the untreated check): 12.8 boxes/acre
- increase in yield, percent (Mature cherry trees; over the untreated check): 22.3%
- change in biomass (Corn plants; [11]): 9.0 grams
- change in biomass, percent (Corn plants; [11]): 13.9%
- change in root length (Corn plants; [11]): −106.8
- change in root length, percent (Corn plants; [11]): −6.0%
- Plant Biomass (Corn plants; [12]): 74.0 a g
- Root Length (Corn plants; [12]): 1683.8 a cm
- change in biomass (Corn plants; [13]): 9.1 grams
- change in biomass, percent (Corn plants; [13]): 14.1%
- change in root length (Corn plants; [13]): 65.3
- change in root length, relative (in brackets) (Corn plants; [13]): 3.6
- Plant Biomass (Corn plants; [14]): 74.1 a g
- Root Length (Corn plants; [14]): 1855.9 a cm
- Basal Diameter (Zinnia plants; [15]): 6.45 a mm
- Flower (count) (Zinnia plants; [15]): 10.17 count
- Plant Height (Zinnia plants; [15]): 35.83 a cm
- increase in basal diameter (Zinnia plants; [16]): 1.2 mm
- increase in basal diameter, percent (Zinnia plants; [16]): 22.9%
- increase in flower counts (Zinnia plants; [16]): 6.0
- increase in flower counts, percent (Zinnia plants; [16]): 143.9%
- increase in plant height (Zinnia plants; [16]): 9.66 cm
- increase in plant height, percent (Zinnia plants; [16]): 36.9%
- Yield ([3]; 20% solution, foliar, 8 fl. oz./acre ~40 days after emergence): 53.9 a Bushels/Acre
- increase in yield ([3]; over the untreated control): 5.3 bushels/acre
- increase in yield, percent ([3]; over the untreated control): 10.9%
